Data reported in patent US20260263425A1, “USE OF COMPOSITION CONTAINING CANDESARTAN OR AZILSARTAN” (GACHON UNIVERSITY OF INDUSTRY-ACADEMIC COOPERATION …, priority 2023, published 2026).

Legend:
HepG2 cells [1] = experiment: Intracellular Ca2+ level and lipid accumulation in palmitic acid-treated HepG2 cells (confocal microscopy, fluorescent dyes); assay type: cell-based, Human; settings: for lipid accumulation: palmitic acid-treated HepG2, BODIPY; for fluorescence intensity for intracellular Ca2+: palmitic acid-treated HepG2, Calbryte 630 AM
Procedure: Subsequently, to determine whether ARBs can regulate intracellular Ca^2+ levels and lipid accumulation in HepG2 cells treated with palmitic acid, the effects of ARBs were evaluated using confocal microscopy and the fluorescent dyes Calbryte 630 AM (for intracellular Ca^2+) and BODIPY (for lipids).
Specifically, for intracellular Ca^2+ concentration and lipid accumulation, HepG2 cells were plated on slide glasses, treated with 0.5 mM palmitic acid for 16 hours, and incubated with 4 μM Fura-2-AM (Teflabs), […] Calbryte 630 AM, or […] BODIPY in PBS for 30 minutes at 37° C. in the dark. The cells were then washed with PBS for 10 minutes. Subsequently, the cells were counterstained with 4,6-diamidino-2-phenylindole (DAPI) to visualize nuclei. After mounting, the stained slides were imaged using a Zeiss LSM 700 or Zeiss LSM 980 laser scanning confocal microscope (Carl Zeiss) and analyzed using ZEN 2010 Software (Carl Zeiss). Intracellular Ca^2+ was quantified from the microscopic images using the NIH ImageJ software (https://imagej.nih.gov/ij/, 1997-2017). […]

AKT PH domain [2] = experiment: Insulin-stimulated membrane localization of AKT PH domain in palmitic acid-treated HepG2 cells; assay type: cell-based, Human; settings: 100 nM insulin 15 min, AKT PH mCherry
Procedure: One mechanism of insulin resistance is that, in the state of obesity and diabetes, an increase in the concentration of calcium in the cytoplasm leads to calcium binding to PI(3, 4, 5)P3 present in the cell membrane, generating Ca^2+-PI(3, 4, 5)P3, which inhibits binding to the PH domain of AKT and suppresses AKT protein activity, thereby inducing insulin resistance. Accordingly, it was evaluated whether azilsartan and candesartan, which were shown in the above examples to attenuate palmitic acid-induced intracellular Ca^2+ overload, regulate the intracellular localization of the AKT PH domain, which functions as a biosensor for PI(3, 4, 5)P3.
(§1) Specifically, CHO cells or HepG2 cells were transfected with cDNA encoding hAKT PHD (residues 1 to 144) using Lipofectamine (Life Technologies). To monitor the intracellular localization of endogenous AKT, liver sections were antigen activated with 10 mM Tris/HCl (pH 9.0) for 20 minutes, treated with serum-free protein blocking solution (DAKO) for 30 minutes, and permeabilized with 0.5% Tween 20 for 15 minutes. The liver sections were then incubated with anti-AKT PHD antibody (SKB1, #05-591, Sigma-Aldrich) and FITC-conjugated secondary antibody. After mounting, the liver sections were imaged with an LSM 980 laser scanning confocal microscope (Carl Zeiss), and the images were analyzed using ZEN software (Carl Zeiss).
When administering azilsartan or candesartan to cells, the impairment induced by palmitic acid was recovered.

HFD-fed mice = experiment: Postprandial phosphorylation of AKT and downstream substrates in HFD-fed mice; assay type: in vivo; settings: fasted overnight, re-fed HFD 4 hours
Procedure: Tissues and cells were lysed using a modified RIPA buffer (50 mM Tris-HCl pH 7.4, 1% Triton X-100, 150 mM NaCl, 1 mM EDTA; Cell Signaling Technology) freshly supplemented with 1 mM Na3VO4, […], and protease inhibitor cocktail (Complete Mini, Roche). Equal amounts of proteins were separated on 4-12% gels and electrophoretically transferred to polyvinylidene difluoride (PVDF) membranes. Immunoblots were visualized with horseradish peroxidase-conjugated secondary antibodies and enhanced chemiluminescence kits (ECL kits; GE Healthcare Life Sciences) using a charge-coupled device camera (Amersham ImageQuant 800). To elucidate the role of candesartan on insulin signaling in vivo, mice were fasted overnight and then re-fed an HFD for 4 hours, and postprandial phosphorylation of AKT and its downstream signaling substrates FOXO1A, FOXO3A, GSK3B, and AS160 was measured.

HepG2 cells [3] = experiment: Insulin-stimulated phosphorylation of Akt and downstream molecules in palmitic acid-treated HepG2 cells (immunoblot); assay type: cell-based, Human; settings: HepG2, 0.5 mM palmitic acid 16 h, ARB 5, 10, 20 μM; dose-dependent
Procedure: Tissues and cells were lysed using a modified RIPA buffer (50 mM Tris-HCl pH 7.4, 1% Triton X-100, 150 mM NaCl, 1 mM EDTA; Cell Signaling Technology) freshly supplemented with 1 mM Na3VO4, […], and protease inhibitor cocktail (Complete Mini, Roche). Equal amounts of proteins were separated on 4-12% gels and electrophoretically transferred to polyvinylidene difluoride (PVDF) membranes. Immunoblots were visualized with horseradish peroxidase-conjugated secondary antibodies and enhanced chemiluminescence kits (ECL kits; GE Healthcare Life Sciences) using a charge-coupled device camera (Amersham ImageQuant 800). Specifically, nine FDA-approved ARBs (losartan, eprosartan, fimasartan, irbesartan, olmesartan, telmisartan, valsartan, azilsartan, and candesartan) commonly prescribed for the treatment of hypertension in human patients were administered to HepG2 cells at various concentrations (5 μM, 10 μM, and 20 μM) in combination with 0.5 mM palmitic acid for 16 hours. Then, the insulin-stimulated phosphorylation of the key insulin signaling molecule Akt and its downstream signaling molecules GSK3β and FOXO3 was investigated. The results of Example 1 indicate that azilsartan and candesartan have beneficial off-target effects on insulin signaling and intracellular Ca^2+ homeostasis that are distinct from their known effects as angiotensin receptor blockers. […]

AKT PH domain [4] = experiment: Insulin-stimulated membrane localization of AKT PH domain in PMA-treated CHO-IR cells; assay type: cell-based, Chinese hamster
Procedure: as §1, with “Zeiss). Similarly, in phorbol myristate acetate (PMA)-treated Chinese hamster ovary-insulin receptor (CHO-IR) cells, it was confirmed that insulin-stimulated membrane localization of the AKT PH domain was rescued by treatment with azilsartan or candesartan (FIG. 3b).” for “Zeiss).”

SMILES	lipid accumulation (HepG2 cells [1])	fluorescence intensity for intracellular Ca2+ (HepG2 cells [1])	palmitic acid-induced impairment of insulin-stimulated membrane localization of the AKT PH domain (AKT PH domain [2])	postprandial phosphorylation of AKT, FOXO1A, FOXO3A, GSK3B, and AS160, increase compared to the control group (HFD-fed mice)	insulin-stimulated phosphorylation of Akt, GSK3B, and FOXO3 (HepG2 cells [3])	insulin-stimulated membrane localization of the AKT PH domain (AKT PH domain [4])
CCCCC1=NC2(CCCC2)C(=O)N1Cc1ccc(-c2ccccc2-c2nnn[nH]2)cc1 [irbesartan]	did not significantly affect	did not significantly affect	did not rescue	–	–	–
CCCCc1nc(Cl)c(CO)n1Cc1ccc(-c2ccccc2-c2nn[nH]n2)cc1 [losartan]	did not significantly affect	did not significantly affect	did not rescue	–	–	–
CCCCc1ncc(/C=C(\Cc2cccs2)C(=O)O)n1Cc1ccc(C(=O)O)cc1 [eprosartan]	did not significantly affect	did not significantly affect	did not rescue	–	–	–
CCCc1nc2c(C)cc(-c3nc4ccccc4n3C)cc2n1Cc1ccc(-c2ccccc2C(=O)O)cc1 [telmisartan]	did not significantly affect	did not significantly affect	did not rescue	–	–	–
CCOc1nc2cccc(C(=O)O)c2n1Cc1ccc(-c2ccccc2-c2nnn[nH]2)cc1 [candesartan]	–	–	–	4- to 10 fold	–	–
CCOc1nc2cccc(C(=O)O)c2n1Cc1ccc(-c2ccccc2-c2nc(=O)o[nH]2)cc1 [azilsartan]	significantly reduced	significantly reduced	recovered	–	completely restored	rescued
